Data: ChEMBL document CHEMBL1201862, “PubChem BioAssay data set” (2004)
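A five-concentration, 48-hour dose response in 96-well plates underlies each endpoint, interpolated linearly between surrounding concentrations. GI50 is the concentration that inhibits growth by half.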 Active and inactive are the calls of the source. Cut-off read from the data, not from the text of the source: active = GI50 up to about 1.1 µM and inactive = higher.

How the values were obtained:
Experiment in all cases: inhibition of tumour cell growth, NCI panel, 48 h
MCF7 = tested on: MCF7
UACC-257 = tested on: UACC-257
UO-31 = tested on: UO-31
RXF 393 = tested on: RXF 393
HCT-15 = tested on: HCT-15
A498 = tested on: A498
HCT-116 = tested on: HCT-116
SNB-75 = tested on: SNB-75
SF-539 = tested on: SF-539
UACC-62 = tested on: UACC-62
SK-OV-3 = tested on: SK-OV-3
OVCAR-5 = tested on: OVCAR-5
U-251 = tested on: U-251
LOX IMVI = tested on: LOX IMVI
HL-60 = tested on: HL-60
MDA-MB-435 = tested on: MDA-MB-435
PC-3 = tested on: PC-3
SR = tested on: SR
ACHN = tested on: ACHN
786-0 = tested on: 786-0

SMILES	GI50 (MCF7)	GI50 (UACC-257)	GI50 (UO-31)	GI50 (RXF 393)	GI50 (HCT-15)	GI50 (A498)	GI50 (HCT-116)	GI50 (SNB-75)	GI50 (SF-539)	GI50 (UACC-62)	GI50 (SK-OV-3)	GI50 (OVCAR-5)	GI50 (U-251)	GI50 (LOX IMVI)	GI50 (HL-60)	GI50 (MDA-MB-435)	GI50 (PC-3)	GI50 (SR)	GI50 (ACHN)	GI50 (786-0)
CCOC(=O)c1cc(Cl)ccc1OC(N)=O	> 100 µM (inactive)	> 100 µM (inactive)	> 100 µM (inactive)	> 100 µM (inactive)	> 100 µM	> 100 µM (inactive)	> 100 µM (inactive)	> 100 µM (inactive)	> 100 µM (inactive)	> 100 µM (inactive)	> 100 µM (inactive)	> 100 µM (inactive)	> 100 µM (inactive)	> 100 µM (inactive)	> 100 µM (inactive)					
CN1C2CCC1CC(CCNC(c1ccccc1)c1ccccc1)C2 (centres undefined)		16.4 µM (inactive)	17.2 µM (inactive)	14.4 µM (inactive)	33.7 µM	23.8 µM (inactive)	18.3 µM (inactive)	47.2 µM (inactive)	17.9 µM (inactive)		> 100 µM (inactive)	> 100 µM (inactive)	30.6 µM (inactive)	20.2 µM (inactive)	31 µM (inactive)	6.81 µM (inactive)	37.6 µM (inactive)	15.3 µM (inactive)	80.5 µM (inactive)	17.5 µM (inactive)
N/C(=N\O)N/N=C/c1ccc2c(c1)OCCO2	22.1 µM (inactive)	18.6 µM (inactive)	8.65 µM (inactive)	27.9 µM (inactive)	10.3 µM	27.2 µM (inactive)	21.7 µM (inactive)	29.9 µM (inactive)	17.1 µM (inactive)		34 µM (inactive)	4.72 µM (inactive)	21.3 µM (inactive)	8.09 µM (inactive)	18.2 µM (inactive)					
N/C(=N/O)N/N=C\c1cc(Cl)cc(Cl)c1O	0.428 µM (active)	4.34 µM (inactive)	4.25 µM (inactive)	5.05 µM (inactive)	2.02 µM	6.38 µM (inactive)	1.36 µM (inactive)	1.03 µM (active)	1.64 µM (inactive)	0.42 µM (active)	4.91 µM (inactive)	7.36 µM (inactive)	2.87 µM (inactive)	0.918 µM (active)	0.0116 µM (active)					
CC(C)(C)c1cc(Cc2ccc(S(C)(=O)=O)cc2)c(O)c(C(C)(C)C)c1		17 µM (inactive)	16.1 µM (inactive)	12.9 µM (inactive)	16.9 µM	16.1 µM (inactive)	14 µM (inactive)	14.8 µM (inactive)	16.7 µM (inactive)	13.1 µM (inactive)	21.7 µM (inactive)	14.4 µM (inactive)	15.1 µM (inactive)	14.6 µM (inactive)	16.5 µM (inactive)			13.2 µM (inactive)	13.7 µM (inactive)	16.1 µM (inactive)
Cc1ccc(/C=N/n2c(Cc3ccccc3)n[nH]c2=O)cc1		> 100 µM (inactive)	> 100 µM (inactive)	> 100 µM (inactive)	> 100 µM	> 100 µM (inactive)	> 100 µM (inactive)	40.2 µM (inactive)	> 100 µM (inactive)			> 100 µM (inactive)		> 100 µM (inactive)	> 100 µM (inactive)		> 100 µM (inactive)	> 100 µM (inactive)	> 100 µM (inactive)	80.9 µM (inactive)
O=[N+]([O-])c1cc(C(F)(F)F)cc2c1SC1=Nc3ccccc3CN12	> 100 µM (inactive)	> 100 µM (inactive)	> 100 µM (inactive)	> 100 µM (inactive)	> 100 µM	> 100 µM (inactive)	> 100 µM (inactive)	> 100 µM (inactive)	> 100 µM (inactive)	> 100 µM (inactive)	> 100 µM (inactive)	> 100 µM (inactive)	> 100 µM (inactive)	> 100 µM (inactive)	> 100 µM (inactive)					
